# Assay results taken from patent US20100242139A1, “XENOHORMESIS BASED COMPOSITIONS AND METHODS” (President and Fellows of Harvard College, priority 2006, published 2010).
# Experiments:
# PKA(h) = PKA(h) (Homo sapiens, UniProt P17612); assay: kinase panel activity, PKA(h); type: biochemical; conditions: compound at 20 μM; vs reference with no compound
# NEK7(h) = NEK7(h) (Homo sapiens, UniProt Q8TDX7); assay: kinase panel activity, NEK7(h); type: biochemical; conditions: compound at 20 μM; vs reference with no compound
# MST1(h) = MST1(h) (Homo sapiens, UniProt Q13043); assay: kinase panel activity, MST1(h); type: biochemical; conditions: compound at 20 μM; vs reference with no compound
# p70S6K(h) = p70S6K(h) (Homo sapiens, UniProt P23443); assay: kinase panel activity, p70S6K(h); type: biochemical; conditions: compound at 20 μM; vs reference with no compound
# NEK2(h) = NEK2(h) (Homo sapiens, UniProt P51955); assay: kinase panel activity, NEK2(h); type: biochemical; conditions: compound at 20 μM; vs reference with no compound
# SAPK2b(h) = SAPK2b(h) (Homo sapiens, UniProt Q15759); assay: kinase panel activity, SAPK2b(h); type: biochemical; conditions: compound at 20 μM; vs reference with no compound
# DAPK2(h) = DAPK2(h) (Homo sapiens, UniProt Q9UIK4); assay: kinase panel activity, DAPK2(h); type: biochemical; conditions: compound at 20 μM; vs reference with no compound
# LKB1(h) = LKB1(h) (Homo sapiens, UniProt Q15831); assay: kinase panel activity, LKB1(h); type: biochemical; conditions: compound at 20 μM; vs reference with no compound
# CDK6/cyclinD3(h) = CDK6/cyclinD3(h) (Homo sapiens, UniProt Q00534); assay: kinase panel activity, CDK6/cyclinD3(h); type: biochemical; conditions: compound at 20 μM; vs reference with no compound
# MSK1(h) = MSK1(h) (Homo sapiens, UniProt O75582); assay: kinase panel activity, MSK1(h); type: biochemical; conditions: compound at 20 μM; vs reference with no compound
# Ros(h) = Ros(h) (Homo sapiens, UniProt P08922); assay: kinase panel activity, Ros(h); type: biochemical; conditions: compound at 20 μM; vs reference with no compound
# CDK2/cyclinE(h) = CDK2/cyclinE(h) (Homo sapiens, UniProt P24941); assay: kinase panel activity, CDK2/cyclinE(h); type: biochemical; conditions: compound at 20 μM; vs reference with no compound
# SAPK4(h) = SAPK4(h) (Homo sapiens, UniProt O15264); assay: kinase panel activity, SAPK4(h); type: biochemical; conditions: compound at 20 μM; vs reference with no compound
# NLK(h) = NLK(h) (Homo sapiens, UniProt Q9UBE8); assay: kinase panel activity, NLK(h); type: biochemical; conditions: compound at 20 μM; vs reference with no compound
# Rsk1(h) = Rsk1(h) (Homo sapiens, UniProt Q15418); assay: kinase panel activity, Rsk1(h); type: biochemical; conditions: compound at 20 μM; vs reference with no compound
# Pim-2(h) = Pim-2(h) (Homo sapiens, UniProt Q9P1W9); assay: kinase panel activity, Pim-2(h); type: biochemical; conditions: compound at 20 μM; vs reference with no compound
# TrkA(h) = TrkA(h) (Homo sapiens, UniProt P04629); assay: kinase panel activity, TrkA(h); type: biochemical; conditions: compound at 20 μM; vs reference with no compound
# CHK1(h) = CHK1(h) (Homo sapiens, UniProt O14757); assay: kinase panel activity, CHK1(h); type: biochemical; conditions: compound at 20 μM; vs reference with no compound
# DAPK1(h) = DAPK1(h) (Homo sapiens, UniProt P53355); assay: kinase panel activity, DAPK1(h); type: biochemical; conditions: compound at 20 μM; vs reference with no compound
# CDK3/cyclinE(h) = CDK3/cyclinE(h) (Homo sapiens, UniProt Q00526); assay: kinase panel activity, CDK3/cyclinE(h); type: biochemical; conditions: compound at 20 μM; vs reference with no compound
# IRR(h) = IRR(h) (Homo sapiens, UniProt P14616); assay: kinase panel activity, IRR(h); type: biochemical; conditions: compound at 20 μM; vs reference with no compound
# PKBγ(h) = PKBγ(h) (Homo sapiens, UniProt Q9Y243); assay: kinase panel activity, PKBγ(h); type: biochemical
# TrkB(h) = TrkB(h) (Homo sapiens, UniProt Q16620); assay: kinase panel activity, TrkB(h); type: biochemical; conditions: compound at 20 μM; vs reference with no compound
# ALK4(h) = ALK4(h) (Homo sapiens, UniProt P36896); assay: kinase panel activity, ALK4(h); type: biochemical; conditions: compound at 20 μM; vs reference with no compound
# PDGFRα(h) = PDGFRα(h) (Homo sapiens, UniProt P16234); assay: kinase panel activity, PDGFRα(h); type: biochemical; conditions: compound at 20 μM; vs reference with no compound
# PKG1β(h) = PKG1β(h) (Homo sapiens, UniProt Q13976); assay: kinase panel activity, PKG1β(h); type: biochemical; conditions: compound at 20 μM; vs reference with no compound
# JNK3(h) = JNK3(h) (Homo sapiens, UniProt P53779); assay: kinase panel activity, JNK3(h); type: biochemical; conditions: compound at 20 μM; vs reference with no compound
# SGK2(h) = SGK2(h) (Homo sapiens, UniProt Q9HBY8); assay: kinase panel activity, SGK2(h); type: biochemical; conditions: compound at 20 μM; vs reference with no compound
# PKBα(h) = PKBα(h) (Homo sapiens, UniProt P31749); assay: kinase panel activity, PKBα(h); type: biochemical
# CDK7/cyclinH/MAT1(h) = CDK7/cyclinH/MAT1(h) (Homo sapiens, UniProt P50613); assay: kinase panel activity, CDK7/cyclinH/MAT1(h); type: biochemical; conditions: compound at 20 μM; vs reference with no compound
# Rsk2(h) = Rsk2(h) (Homo sapiens, UniProt P51812); assay: kinase panel activity, Rsk2(h); type: biochemical; conditions: for percent activity of Rsk2(h): compound at 20 μM, vs reference with no compound
# PDK1(h) = PDK1(h) (Homo sapiens, UniProt O15530); assay: kinase panel activity, PDK1(h); type: biochemical; conditions: compound at 20 μM; vs reference with no compound
# PIk3(h) = PIk3(h) (Homo sapiens, UniProt Q9H4B4); assay: kinase panel activity, PIk3(h); type: biochemical; conditions: compound at 20 μM; vs reference with no compound
# AMPK(r) = assay: kinase panel activity, AMPK(r); type: biochemical, rat; conditions: compound at 20 μM; vs reference with no compound
# MAPK2(h) = MAPK2(h) (Homo sapiens, UniProt P28482); assay: kinase panel activity, MAPK2(h); type: biochemical; conditions: compound at 20 μM; vs reference with no compound
# GSK3β(h) = GSK3β(h) (Homo sapiens, UniProt P49841); assay: kinase panel activity, GSK3β(h); type: biochemical; conditions: compound at 20 μM; vs reference with no compound
# TBK1(h) = TBK1(h) (Homo sapiens, UniProt Q9UHD2); assay: kinase panel activity, TBK1(h); type: biochemical; conditions: compound at 20 μM; vs reference with no compound
# CDK9/cyclin T1(h) = CDK9/cyclin T1(h) (Homo sapiens, UniProt P50750); assay: kinase panel activity, CDK9/cyclin T1(h); type: biochemical; conditions: compound at 20 μM; vs reference with no compound
# MSK2(h) = MSK2(h) (Homo sapiens, UniProt O75676); assay: kinase panel activity, MSK2(h); type: biochemical; conditions: compound at 20 μM; vs reference with no compound
# IKKβ(h) = IKKβ(h) (Homo sapiens, UniProt O14920); assay: kinase panel activity, IKKβ(h); type: biochemical; conditions: compound at 20 μM; vs reference with no compound
# [1] = compound at 20 μM, vs reference with no compound
# Chain of Rsk2(h) (P51812 whole entry): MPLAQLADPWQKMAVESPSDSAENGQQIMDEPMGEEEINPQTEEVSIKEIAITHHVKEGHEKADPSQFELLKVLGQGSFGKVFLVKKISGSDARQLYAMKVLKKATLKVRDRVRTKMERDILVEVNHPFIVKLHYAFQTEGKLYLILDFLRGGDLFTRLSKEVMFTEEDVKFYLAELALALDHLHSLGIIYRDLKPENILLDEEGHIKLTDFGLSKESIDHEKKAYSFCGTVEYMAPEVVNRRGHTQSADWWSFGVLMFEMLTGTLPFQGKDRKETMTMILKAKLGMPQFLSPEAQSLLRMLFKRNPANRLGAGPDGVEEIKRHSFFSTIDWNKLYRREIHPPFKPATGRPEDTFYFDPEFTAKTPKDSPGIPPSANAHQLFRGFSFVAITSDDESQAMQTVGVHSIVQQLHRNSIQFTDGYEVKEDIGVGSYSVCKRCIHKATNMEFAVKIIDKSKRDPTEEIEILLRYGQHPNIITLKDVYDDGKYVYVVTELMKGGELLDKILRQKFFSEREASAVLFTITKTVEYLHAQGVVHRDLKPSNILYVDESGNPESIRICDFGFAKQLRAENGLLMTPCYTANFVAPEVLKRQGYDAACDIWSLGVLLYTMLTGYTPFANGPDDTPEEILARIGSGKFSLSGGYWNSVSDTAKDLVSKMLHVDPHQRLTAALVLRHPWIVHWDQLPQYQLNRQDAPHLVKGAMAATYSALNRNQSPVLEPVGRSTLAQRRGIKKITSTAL
# Chain of TBK1(h) (Q9UHD2 whole entry): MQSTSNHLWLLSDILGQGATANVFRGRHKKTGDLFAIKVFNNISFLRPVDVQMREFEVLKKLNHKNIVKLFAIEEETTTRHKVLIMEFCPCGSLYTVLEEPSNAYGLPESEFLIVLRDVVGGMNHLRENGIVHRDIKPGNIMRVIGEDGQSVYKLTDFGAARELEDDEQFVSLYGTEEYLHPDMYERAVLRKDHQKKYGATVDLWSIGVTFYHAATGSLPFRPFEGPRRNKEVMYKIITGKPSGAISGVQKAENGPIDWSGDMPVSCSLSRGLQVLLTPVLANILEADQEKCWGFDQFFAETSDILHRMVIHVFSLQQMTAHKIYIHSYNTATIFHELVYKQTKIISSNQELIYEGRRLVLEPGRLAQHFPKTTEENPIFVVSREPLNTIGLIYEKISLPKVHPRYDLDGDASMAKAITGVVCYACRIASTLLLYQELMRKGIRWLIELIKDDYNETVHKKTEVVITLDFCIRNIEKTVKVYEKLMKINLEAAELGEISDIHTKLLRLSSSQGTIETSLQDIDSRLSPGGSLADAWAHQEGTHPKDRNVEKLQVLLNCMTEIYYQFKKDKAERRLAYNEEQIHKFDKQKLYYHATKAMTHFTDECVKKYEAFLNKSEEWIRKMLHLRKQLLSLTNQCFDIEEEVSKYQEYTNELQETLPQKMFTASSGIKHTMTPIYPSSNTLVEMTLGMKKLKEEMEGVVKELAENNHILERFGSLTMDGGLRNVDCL
# Chain of SAPK2b(h) (Q15759 whole entry): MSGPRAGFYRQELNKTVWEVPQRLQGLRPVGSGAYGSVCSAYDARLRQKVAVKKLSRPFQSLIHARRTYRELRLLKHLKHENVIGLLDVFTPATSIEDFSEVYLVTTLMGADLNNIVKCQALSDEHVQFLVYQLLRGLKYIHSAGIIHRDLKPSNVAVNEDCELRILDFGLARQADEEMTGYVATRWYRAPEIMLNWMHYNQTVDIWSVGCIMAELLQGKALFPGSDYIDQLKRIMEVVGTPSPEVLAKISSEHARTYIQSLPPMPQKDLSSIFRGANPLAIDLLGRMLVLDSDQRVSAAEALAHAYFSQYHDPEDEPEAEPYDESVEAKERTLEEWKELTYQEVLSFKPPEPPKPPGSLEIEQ
# Chain of IRR(h) (P14616 27-1297): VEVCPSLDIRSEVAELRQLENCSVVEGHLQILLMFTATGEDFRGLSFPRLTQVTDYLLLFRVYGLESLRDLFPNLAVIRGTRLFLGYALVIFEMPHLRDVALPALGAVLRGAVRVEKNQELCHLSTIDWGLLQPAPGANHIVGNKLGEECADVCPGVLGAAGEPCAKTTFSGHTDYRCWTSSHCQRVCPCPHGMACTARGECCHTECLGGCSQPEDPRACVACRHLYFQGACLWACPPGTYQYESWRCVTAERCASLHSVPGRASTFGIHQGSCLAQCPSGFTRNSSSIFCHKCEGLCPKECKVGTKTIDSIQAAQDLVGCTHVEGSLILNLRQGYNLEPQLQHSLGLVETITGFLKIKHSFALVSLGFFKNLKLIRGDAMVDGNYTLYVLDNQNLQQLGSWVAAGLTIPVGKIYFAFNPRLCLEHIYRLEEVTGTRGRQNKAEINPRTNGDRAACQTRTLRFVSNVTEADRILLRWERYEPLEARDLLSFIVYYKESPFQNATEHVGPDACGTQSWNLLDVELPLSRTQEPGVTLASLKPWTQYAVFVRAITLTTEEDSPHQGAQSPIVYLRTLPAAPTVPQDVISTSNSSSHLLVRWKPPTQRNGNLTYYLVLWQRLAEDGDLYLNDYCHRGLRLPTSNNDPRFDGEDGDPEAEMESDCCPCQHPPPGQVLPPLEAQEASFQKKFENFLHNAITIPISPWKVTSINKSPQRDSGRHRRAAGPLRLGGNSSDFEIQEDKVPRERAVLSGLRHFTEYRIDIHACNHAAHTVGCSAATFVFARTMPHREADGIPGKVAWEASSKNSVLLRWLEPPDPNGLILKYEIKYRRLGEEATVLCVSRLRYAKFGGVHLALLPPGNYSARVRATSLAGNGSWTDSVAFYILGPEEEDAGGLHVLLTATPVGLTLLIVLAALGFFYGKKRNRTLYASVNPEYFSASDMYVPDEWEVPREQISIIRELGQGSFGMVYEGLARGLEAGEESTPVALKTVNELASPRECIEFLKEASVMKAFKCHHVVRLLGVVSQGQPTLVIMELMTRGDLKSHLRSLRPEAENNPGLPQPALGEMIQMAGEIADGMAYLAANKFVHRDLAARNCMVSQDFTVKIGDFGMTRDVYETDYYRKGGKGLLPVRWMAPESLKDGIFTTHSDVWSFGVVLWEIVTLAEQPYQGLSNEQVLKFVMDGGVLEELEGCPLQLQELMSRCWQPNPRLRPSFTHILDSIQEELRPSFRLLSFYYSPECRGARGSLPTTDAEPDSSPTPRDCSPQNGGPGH
# Chain of MST1(h) (Q13043 whole entry): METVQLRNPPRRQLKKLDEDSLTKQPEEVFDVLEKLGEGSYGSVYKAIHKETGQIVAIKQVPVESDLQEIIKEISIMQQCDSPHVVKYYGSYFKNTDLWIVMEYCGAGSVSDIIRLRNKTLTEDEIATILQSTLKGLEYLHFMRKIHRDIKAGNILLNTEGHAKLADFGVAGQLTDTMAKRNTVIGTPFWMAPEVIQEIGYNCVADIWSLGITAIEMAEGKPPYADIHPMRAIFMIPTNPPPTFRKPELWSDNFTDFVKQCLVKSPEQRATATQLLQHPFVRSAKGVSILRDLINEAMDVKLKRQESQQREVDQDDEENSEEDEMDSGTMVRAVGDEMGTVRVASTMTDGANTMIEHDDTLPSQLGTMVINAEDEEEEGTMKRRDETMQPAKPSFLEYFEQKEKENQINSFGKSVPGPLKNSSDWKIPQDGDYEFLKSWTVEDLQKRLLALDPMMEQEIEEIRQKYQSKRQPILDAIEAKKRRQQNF
# Chain of IKKβ(h) (O14920 whole entry): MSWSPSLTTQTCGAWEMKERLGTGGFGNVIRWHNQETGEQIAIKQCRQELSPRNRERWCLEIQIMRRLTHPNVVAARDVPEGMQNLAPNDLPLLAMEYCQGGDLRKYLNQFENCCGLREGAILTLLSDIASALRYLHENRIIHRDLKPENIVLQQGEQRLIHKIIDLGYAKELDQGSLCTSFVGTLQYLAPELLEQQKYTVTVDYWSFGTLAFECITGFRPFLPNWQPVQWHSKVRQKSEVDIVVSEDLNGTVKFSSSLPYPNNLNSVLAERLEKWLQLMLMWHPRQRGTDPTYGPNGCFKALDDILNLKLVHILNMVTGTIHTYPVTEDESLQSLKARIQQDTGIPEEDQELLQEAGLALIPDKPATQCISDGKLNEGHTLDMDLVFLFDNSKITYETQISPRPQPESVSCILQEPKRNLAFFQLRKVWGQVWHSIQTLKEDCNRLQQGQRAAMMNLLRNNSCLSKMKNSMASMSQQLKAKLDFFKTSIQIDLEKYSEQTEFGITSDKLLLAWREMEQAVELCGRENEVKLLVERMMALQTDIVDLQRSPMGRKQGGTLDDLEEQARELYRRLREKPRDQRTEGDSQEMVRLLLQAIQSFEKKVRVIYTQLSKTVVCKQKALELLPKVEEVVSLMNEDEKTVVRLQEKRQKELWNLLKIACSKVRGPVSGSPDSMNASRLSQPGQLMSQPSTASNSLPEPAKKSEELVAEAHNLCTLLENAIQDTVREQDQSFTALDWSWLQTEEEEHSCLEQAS
# Chain of SAPK4(h) (O15264 whole entry): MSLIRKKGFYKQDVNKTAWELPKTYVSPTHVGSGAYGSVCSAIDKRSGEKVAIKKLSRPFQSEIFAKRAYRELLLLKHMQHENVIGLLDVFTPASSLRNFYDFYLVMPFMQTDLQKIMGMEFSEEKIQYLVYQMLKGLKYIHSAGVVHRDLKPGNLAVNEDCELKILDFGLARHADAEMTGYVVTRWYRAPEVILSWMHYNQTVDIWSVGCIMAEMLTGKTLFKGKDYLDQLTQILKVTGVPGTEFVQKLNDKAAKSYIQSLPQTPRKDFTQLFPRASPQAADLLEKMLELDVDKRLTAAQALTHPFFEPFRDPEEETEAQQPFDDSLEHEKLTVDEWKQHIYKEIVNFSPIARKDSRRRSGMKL
# Chain of NEK7(h) (Q8TDX7 whole entry): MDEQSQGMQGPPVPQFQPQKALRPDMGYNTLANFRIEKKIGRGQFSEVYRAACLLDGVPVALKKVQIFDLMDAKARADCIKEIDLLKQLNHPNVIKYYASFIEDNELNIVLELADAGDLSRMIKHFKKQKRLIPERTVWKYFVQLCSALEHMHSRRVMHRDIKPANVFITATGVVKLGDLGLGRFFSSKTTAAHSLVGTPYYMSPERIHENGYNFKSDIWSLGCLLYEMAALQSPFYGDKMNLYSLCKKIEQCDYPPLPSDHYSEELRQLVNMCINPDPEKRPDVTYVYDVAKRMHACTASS
smiles,measurement,setting,value
"Oc1ccc(C=Cc2cc(O)cc(O)c2)cc1 [resveratrol, 3,5,4′-trihydroxystilbene]",percent activity of PKA(h),PKA(h),100%
same,percent activity of NEK7(h),NEK7(h),116%
same,percent activity of MST1(h),MST1(h),75%
same,percent activity of p70S6K(h),p70S6K(h),21%
same,percent activity of NEK2(h),NEK2(h),102%
same,percent activity of SAPK2b(h),SAPK2b(h),100%
same,percent activity of DAPK2(h),DAPK2(h),67%
same,percent activity of LKB1(h),LKB1(h),102%
same,percent activity of CDK6/cyclinD3(h),CDK6/cyclinD3(h),55%
same,percent activity of MSK1(h),MSK1(h),58%
same,percent activity of Ros(h),Ros(h),102%
same,percent activity of CDK2/cyclinE(h),CDK2/cyclinE(h),80%
same,percent activity of SAPK4(h),SAPK4(h),92%
same,percent activity of NLK(h),NLK(h),30%
same,percent activity of Rsk1(h),Rsk1(h),70%
same,percent activity of Pim-2(h),Pim-2(h),14%
same,percent activity of TrkA(h),TrkA(h),31%
same,percent activity of CHK1(h),CHK1(h),95%
same,percent activity of DAPK1(h),DAPK1(h),71%
same,percent activity of CDK3/cyclinE(h),CDK3/cyclinE(h),75%
same,percent activity of IRR(h),IRR(h),40%
same,activity at 20 µM,PKBγ(h); read-out: percent activity of PKBγ(h),89%
same,percent activity of TrkB(h),TrkB(h),98%
same,percent activity of ALK4(h),ALK4(h),110%
same,percent activity of PDGFRα(h),PDGFRα(h),114%
same,percent activity of PKG1β(h),PKG1β(h),56%
same,percent activity of JNK3(h),JNK3(h),98%
same,percent activity of SGK2(h),SGK2(h),70%
same,activity at 20 µM,PKBα(h); read-out: percent activity of PKBα(h),94%
same,percent activity of CDK7/cyclinH/MAT1(h),CDK7/cyclinH/MAT1(h),95%
same,inhibition at 20 µM,Rsk2(h),68%
same,percent activity of Rsk2(h),Rsk2(h),32%
same,percent activity of PDK1(h),PDK1(h),108%
same,percent activity of PIk3(h),PIk3(h),95%
same,percent activity of AMPK(r),AMPK(r),39%
same,percent activity of MAPK2(h),MAPK2(h),101%
same,percent activity of GSK3β(h),GSK3β(h),92%
same,percent activity of TBK1(h),TBK1(h),62%
same,percent activity of CDK9/cyclin T1(h),CDK9/cyclin T1(h),70%
same,percent activity of MSK2(h),MSK2(h),60%
same,percent activity of IKKβ(h),IKKβ(h),116%
"O=C(O)[C@H]1O[C@@H](Oc2ccc(/C=C/c3cc(O)cc(O)c3)cc2)[C@H](O)[C@@H](O)[C@@H]1O [Res 4′-Gluc, resveratrol-4-glucuronide]",percent activity of PKA(h),PKA(h),105%
same,percent activity of NEK7(h),NEK7(h),112%
same,percent activity of MST1(h),MST1(h),106%
same,percent activity of p70S6K(h),p70S6K(h),54%
same,percent activity of NEK2(h),NEK2(h),103%
same,percent activity of SAPK2b(h),SAPK2b(h),111%
same,percent activity of DAPK2(h),DAPK2(h),92%
same,percent activity of LKB1(h),LKB1(h),95%
same,percent activity of CDK6/cyclinD3(h),CDK6/cyclinD3(h),95%
same,percent activity of MSK1(h),MSK1(h),110%
same,percent activity of Ros(h),Ros(h),105%
same,percent activity of CDK2/cyclinE(h),CDK2/cyclinE(h),106%
same,percent activity of SAPK4(h),SAPK4(h),104%
same,percent activity of NLK(h),NLK(h),99%
same,percent activity of Rsk1(h),Rsk1(h),104%
same,percent activity of Pim-2(h),Pim-2(h),76%
same,percent activity of TrkA(h),TrkA(h),32%
same,percent activity of CHK1(h),CHK1(h),117%
same,percent activity of DAPK1(h),DAPK1(h),107%
same,percent activity of CDK3/cyclinE(h),CDK3/cyclinE(h),101%
same,percent activity of IRR(h),IRR(h),93%
same,percent activity of PKBγ(h),PKBγ(h); [1],101%
same,percent activity of TrkB(h),TrkB(h),100%
same,percent activity of ALK4(h),ALK4(h),104%
same,percent activity of PDGFRα(h),PDGFRα(h),114%
same,percent activity of PKG1β(h),PKG1β(h),58%
same,percent activity of JNK3(h),JNK3(h),105%
same,percent activity of SGK2(h),SGK2(h),91%
same,percent activity of PKBα(h),PKBα(h); [1],96%
same,percent activity of CDK7/cyclinH/MAT1(h),CDK7/cyclinH/MAT1(h),110%
same,percent activity of Rsk2(h),Rsk2(h),100%
same,percent activity of PDK1(h),PDK1(h),97%
same,percent activity of PIk3(h),PIk3(h),86%
same,percent activity of AMPK(r),AMPK(r),43%
same,percent activity of MAPK2(h),MAPK2(h),105%
same,percent activity of GSK3β(h),GSK3β(h),88%
same,percent activity of TBK1(h),TBK1(h),80%
same,percent activity of CDK9/cyclin T1(h),CDK9/cyclin T1(h),105%
same,percent activity of MSK2(h),MSK2(h),94%
same,percent activity of IKKβ(h),IKKβ(h),98%
